This is an account of results in ChEMBL document CHEMBL1201862, “PubChem BioAssay data set” (2004).

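Protocol summary: plate cells (96-well), add compound at 5 concentrations, incubate 48 h, interpolate endpoints linearly. The concentration for 50% growth inhibition is given as GI50.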 The source made the active and inactive calls. Rule as the data show it: active = GI50 up to about 1.1 µM and inactive = higher.

Some test systems named below: A498; HL-60; HOP-62; Hs-578T; K562; MDA-MB-435; MDA-N; MOLT-4; NCI-H226; OVCAR-5; OVCAR-8; PC-3; SF-539; SK-MEL-28; SNB-19; U-251; UACC-257; UO-31; HOP-92.
Common to all, as to assay: NCI anticancer screen, dose series, 48 h

Regarding `O=[N+]([O-])/C(C(Cl)=C(Cl)Cl)=C1/OCCS1`, the GI50 in the assay with A498 was 20.3 µM (inactive); with HL-60, 16.9 µM (inactive); in the assay with HOP-62 it was 20.8 µM (inactive); with Hs-578T it was 39.7 µM (inactive); in the assay on K562, 30 µM (inactive); with MDA-MB-435, 22.6 µM (inactive). Besides, the GI50 with MDA-N was 41.6 µM (inactive); with MOLT-4, 17.9 µM (inactive); in the assay on NCI-H226 it was 30.2 µM (inactive); in the assay on OVCAR-5, 32.4 µM (inactive); with OVCAR-8, 16.8 µM (inactive); in the assay on PC-3, 35.9 µM (inactive). Further, the GI50 was 21.3 µM (inactive) in the assay on SF-539; 31.8 µM (inactive) with SK-MEL-28; 50.4 µM (inactive) with SNB-19; 36 µM (inactive) in the assay with U-251; 27.7 µM (inactive) in the assay on UACC-257; 23.1 µM (inactive) in the assay on UO-31.
As for `O=C1C(Br)=CC2(C=C1Br)CCNC1=C2C(=O)c2ncccc2C1=O`, the GI50 is 1.06 µM (active) with HL-60; 0.542 µM (active) in the assay with HOP-62; 1.82 µM (inactive) with HOP-92; 1.27 µM (inactive) in the assay with Hs-578T; 0.266 µM (active) in the assay on K562; 0.189 µM (active) with MDA-MB-435. Further, the GI50 is 0.183 µM (active) in the assay on MDA-N; 1.83 µM (inactive) in the assay on MOLT-4; 1.67 µM (inactive) with NCI-H226; 1.67 µM (inactive) with OVCAR-5; 1.44 µM (inactive) in the assay on OVCAR-8; 1.95 µM (inactive) in the assay on PC-3. Further, the GI50 was 0.318 µM (active) in the assay on SF-539; 0.443 µM (active) with SK-MEL-28; 1.28 µM (inactive) in the assay with SNB-19; 1.31 µM (inactive) with U-251; 0.631 µM (active) in the assay on UACC-257; 1.07 µM (active) in the assay on UO-31.
As to `O=NC1c2cccc3cccc(c23)C1N=O` (stereo unspecified), the GI50 was 17.5 µM (inactive) with A498; 2.5 µM (inactive) with HL-60; 5.26 µM (inactive) in the assay on HOP-62; 7.11 µM (inactive) in the assay on HOP-92; 15.9 µM (inactive) in the assay with Hs-578T; 2.65 µM (inactive) in the assay with K562. For the same compound, the GI50 was 4.78 µM (inactive) in the assay on MDA-MB-435; 3.84 µM (inactive) in the assay with MDA-N; 0.612 µM (active) with MOLT-4; 2.83 µM (inactive) with OVCAR-5; 2.07 µM (inactive) with OVCAR-8; 10.1 µM (inactive) in the assay on PC-3. The GI50 was 12.8 µM (inactive) in the assay with SF-539; 11.8 µM (inactive) with SNB-19; 3.1 µM (inactive) in the assay on U-251; 12.9 µM (inactive) in the assay on UACC-257; 2.76 µM (inactive) in the assay on UO-31.
In the case of `O=C(/C=C/C(=O)N1CCCC1)N1CCCC1`, the GI50 in the assay with A498, with HL-60, with HOP-62, with HOP-92, with Hs-578T and with K562 was > 100 µM (inactive) in each case. For the same compound, the GI50 in the assay with MDA-MB-435, in the assay with MDA-N, in the assay on MOLT-4, in the assay with OVCAR-5, in the assay with OVCAR-8 and in the assay on PC-3 was > 100 µM (inactive) throughout. Moreover, the GI50 with SF-539, in the assay on SK-MEL-28, with SNB-19, with U-251, in the assay on UACC-257 and with UO-31 was > 100 µM (inactive) each time.
Consider `COC(=O)[C@]1(C)CCC[C@@]2(C)C1CC[C@@]13C=C(C(C)C)[C@@H](CC1=O)CC23` (stereo partly specified), for which the GI50 is 19.8 µM (inactive) in the assay on HL-60; 30.6 µM (inactive) in the assay on HOP-62; 13.4 µM (inactive) in the assay on Hs-578T; 13.8 µM (inactive) in the assay on K562; 35.6 µM (inactive) in the assay on MDA-MB-435; 28.8 µM (inactive) in the assay with MDA-N. Besides, the GI50 was 15 µM (inactive) in the assay with MOLT-4; 21.1 µM (inactive) with NCI-H226; 29 µM (inactive) with OVCAR-8; 21.6 µM (inactive) with PC-3; 20.9 µM (inactive) with SF-539; 41.3 µM (inactive) in the assay with SK-MEL-28. Moreover, the GI50 in the assay with SNB-19 is 25.8 µM (inactive); with U-251, 18.7 µM (inactive); with UACC-257, 21.5 µM (inactive); with UO-31, 21.7 µM (inactive).
Regarding `CN(C)CCNC(=O)c1cccc(C(=O)Nc2ccccc2)c1[N+](=O)[O-]`, the GI50 in the assay with A498, in the assay on HL-60, in the assay with HOP-62, with Hs-578T, in the assay on K562 and with MDA-MB-435 was > 100 µM (inactive) in each case. Also, the GI50 in the assay with MDA-N, in the assay with MOLT-4, in the assay on NCI-H226, in the assay on OVCAR-5, in the assay on OVCAR-8 and in the assay with PC-3 was > 100 µM (inactive) each time. For the same compound, the GI50 in the assay on SF-539, with SK-MEL-28, in the assay on SNB-19, in the assay on U-251, with UACC-257 and in the assay with UO-31 was > 100 µM (inactive) in each case.
On to `O=C1/C(=C/c2cccc([N+](=O)[O-])c2)Cc2ccccc21`, for which the GI50 is > 100 µM (inactive) in the assay on HL-60; > 100 µM (inactive) with HOP-62; 75.3 µM (inactive) with HOP-92; > 100 µM (inactive) in the assay with Hs-578T; > 100 µM (inactive) with K562; > 100 µM (inactive) in the assay on MDA-MB-435. In addition, the GI50 in the assay on MDA-N, in the assay on MOLT-4, in the assay on NCI-H226, in the assay with OVCAR-5, in the assay on OVCAR-8 and with PC-3 was > 100 µM (inactive) in each case. Besides, the GI50 in the assay on SF-539 is > 100 µM (inactive); in the assay with SK-MEL-28 it was > 100 µM (inactive); in the assay with SNB-19 it was > 100 µM (inactive); in the assay with U-251 it was 60.1 µM (inactive); with UACC-257, > 100 µM (inactive); in the assay with UO-31 it was 94.8 µM (inactive).
As to `N[C@H](CCC(=O)NCP(=O)(O)O)C(=O)O`, the GI50 in the assay on A498, in the assay with HL-60, in the assay on HOP-62, in the assay with Hs-578T, in the assay with K562 and in the assay on MDA-MB-435 was > 100 µM (inactive) throughout. Also, the GI50 with MDA-N, with MOLT-4, in the assay with OVCAR-5, in the assay with OVCAR-8, in the assay on PC-3 and in the assay on SF-539 was > 100 µM (inactive) each time. The GI50 with SK-MEL-28, in the assay on SNB-19, in the assay on U-251, in the assay with UACC-257 and with UO-31 was > 100 µM (inactive) each time.
On to `CCOC(=O)/C(C(=O)Nc1ccc(F)cc1)=C(/N)N1CCOCC1`, for which the GI50 with A498, with HL-60, in the assay with HOP-62, with Hs-578T, in the assay on K562 and with MDA-MB-435 was > 100 µM (inactive) in each case. In addition, the GI50 in the assay on MDA-N, in the assay with MOLT-4, in the assay with NCI-H226, in the assay on OVCAR-5, in the assay with OVCAR-8 and in the assay with PC-3 was > 100 µM (inactive) in each case. In addition, the GI50 in the assay on SK-MEL-28, in the assay on SNB-19, in the assay on U-251 and in the assay with UACC-257 was > 100 µM (inactive) in each case.
For `COC(=O)CCCc1ccc2c(c1)CCC2`, the GI50 with HL-60, with HOP-62, in the assay with HOP-92, with Hs-578T, in the assay on MDA-MB-435 and in the assay with MDA-N was > 100 µM (inactive) throughout. Further, the GI50 in the assay with MOLT-4, in the assay with NCI-H226, with OVCAR-5, in the assay on OVCAR-8, in the assay with PC-3 and in the assay on SF-539 was > 100 µM (inactive) throughout. The GI50 in the assay on SK-MEL-28, with SNB-19, in the assay with U-251, with UACC-257 and in the assay on UO-31 was > 100 µM (inactive) throughout.
Consider `CC(C)(C)c1cc([N+](=O)[O-])cc([N+](=O)[O-])c1O` [DINOTERB], for which the GI50 in the assay on HL-60 is > 10 µM (inactive); in the assay on HOP-62, > 10 µM (inactive); in the assay on HOP-92, 2.77 µM (inactive); in the assay with Hs-578T it was 8.71 µM (inactive); in the assay with K562 it was 9.29 µM (inactive); in the assay with MDA-MB-435, > 10 µM (inactive). Further, the GI50 in the assay on MDA-N is > 10 µM (inactive); in the assay with MOLT-4 it was > 10 µM (inactive); with NCI-H226, > 10 µM (inactive); in the assay on OVCAR-5, > 10 µM (inactive); in the assay with OVCAR-8, > 10 µM (inactive); in the assay with PC-3, 5.52 µM (inactive). The GI50 in the assay on SF-539 was > 10 µM (inactive); in the assay on SK-MEL-28, > 10 µM (inactive); with SNB-19 it was > 10 µM (inactive); with U-251 it was > 10 µM (inactive); in the assay with UACC-257, 8.57 µM (inactive); in the assay with UO-31 it was > 10 µM (inactive).
